# Data reported in patent US20130344055A1, “ANTIMICROBIAL AGENTS” (priority 2010, published 2013).
# Legend:
# [1] = test system: P. aeruginosa PAO1p cells; assay: Antimicrobial activity of different peptide stretches; conditions: 30 minutes at room temperature; for Antimicrobial effects against P. aeruginosa (relative inactivation): peptide at 3 μM/L (equimolar to AMP)
# Experimental: The bacteria colonies on the agar plates were counted after an overnight incubation at 37° C. Based on the counted cell numbers the antibacterial activity as the relative inactivation in logarithmic units (=log 10N0/Ni with N0=number of untreated cells (of the control) and Ni=number of treated cells, both counted after incubation) is calculated. The reduction in the number of bacteria colonies after treatment with a peptide stretch is indicative for an antimicrobial activity of the peptide stretch, because the bacterial cells are lysed due to the treatment with the peptide stretch. All samples were replicated in four fold.
# Salmonella bacteria = assay: In vitro antibacterial activity of STM0016 fusion variants; assay type: cell-based; conditions: with EDTA 0.5 mM; 10^6 cells/ml; 30 minutes at RT
# Experimental: Exponential growing Gram-negative bacterial cells (OD600 nm=0.6) were 100-fold diluted to a final density of about 10^6 cells/ml in 5 mM HEPES pH 7.4 and incubated for 30 minutes at room temperature without shaking with the different modified OBPgpLYS variants (in Elution Buffer in an end concentration of 1500 nM). After incubation cell suspensions and as a control untreated bacterial cells without any added modified OBPgpLYS variant were diluted three times (respectively 10^5-10^4-10^3 cells/ml) in 1× concentrated PBS buffer and 100 μl of each dilution was plated out on LB-medium. […] All samples were replicated in threefold. Averages +/− standard deviations are represented.
# The purification of the fusion proteins and the antimicrobial activity assay was performed as described in Example 1.
# Listeria bacteria = assay: In vitro antibacterial activity of Ply511 fusion variants; assay type: cell-based; conditions: with EDTA 0.5 mM; 10^6 cells/ml; 30 minutes at RT
molecule,measurement,setting,value
PK2: polycationic peptide KRKKRKKRKRSKRKKRKKRK,Antimicrobial activity against P. aeruginosa (relative inactivation),[1],same antimicrobial activity against P. aeruginosa as SMAP-29 used in a concentration of 3 mmol/L
same,Antimicrobial effects against P. aeruginosa (relative inactivation),[1],no or only minor antimicrobial effects
PK: polycationic peptide KRKKRKKRK,Antimicrobial effects against P. aeruginosa (relative inactivation),[1],no or only minor antimicrobial effects
"STM0016-Melittin: STM0016 fusion variant with one peptide stretch, Melittin","Average log reduction, Salmonella",Salmonella bacteria,+/− (+/−: <1 log)
"STM0016-LL37: STM0016 fusion variant with one peptide stretch, LL37 (protein) MNPIIDGIIALEGGYVFNPKDKGGATHWGITEATARAHGYAGDMRDLTHAEAYAILEEDYWIKPGFDVISTLSWPVSFELCDAAVNIGAYHPSAWLQRWLNVFNHEGKRYPDIHVDGNIGPRTLAALEHYLAWRGQEGEAVLVKALNCSQGTYYLNVAEKNHNNEQFIYGWIKNRVTLLGDFFRKSKEKIGKEFKRIVQRIKDFLRNLVPRTES","Average log reduction, Salmonella",Salmonella bacteria,+ (+: 1 log)
"P1y511-Magainin: Ply511 fusion variant with one peptide stretch, Magainin (protein) MVKYTVENKIIAGLPKGKLKGANFVIAHETANSKSTIDNEVSYMTRNWKNAFVTHFVGGGGRVVQVANVNYVSWGAGQYANSYSYAQVELCRTSNATTFKKDYEVYCQLLVDLAKKAGIPITLDSGSKTSDKGIKSHKWVADKLGGTTHQDPYAYLSSWGISKAQFASDLAKVSGGGNTGTAPAKPSTPAPKPSTPSTNLDKLGLVDYMNAKKMDSSYSNRDKLAKQYGIANYSGTASQNTTLLSKIKGGAPKPSTPAPKPSTSTAKKIYFPPNKGNWSVYPTNKAPVKANAIGAINPTKFGGLTYTIQKDRGNGVYEIQTDQFGRVQVYGAPSTGAVIKKGIGKFLHSAKKFGKAFVGEIMNS","Average log reduction, Listeria",Listeria bacteria,++ (++: 2-3 log)
"P1y511-BuforinII: Ply511 fusion variant with one peptide stretch, Buforin II (protein) MVKYTVENKIIAGLPKGKLKGANFVIAHETANSKSTIDNEVSYMTRNWKNAFVTHFVGGGGRVVQVANVNYVSWGAGQYANSYSYAQVELCRTSNATTFKKDYEVYCQLLVDLAKKAGIPITLDSGSKTSDKGIKSHKWVADKLGGTTHQDPYAYLSSWGISKAQFASDLAKVSGGGNTGTAPAKPSTPAPKPSTPSTNLDKLGLVDYMNAKKMDSSYSNRDKLAKQYGIANYSGTASQNTTLLSKIKGGAPKPSTPAPKPSTSTAKKIYFPPNKGNWSVYPTNKAPVKANAIGAINPTKFGGLTYTIQKDRGNGVYEIQTDQFGRVQVYGAPSTGAVIKKTRSSRAGLQFPVGRVHRLLRK","Average log reduction, Listeria",Listeria bacteria,++ (++: 2-3 log)
"P1y511-BuforinII-Magainin: Ply511 with Buforin II C-terminal of the enzyme, followed by Magainin (protein) MVKYTVENKIIAGLPKGKLKGANFVIAHETANSKSTIDNEVSYMTRNWKNAFVTHFVGGGGRVVQVANVNYVSWGAGQYANSYSYAQVELCRTSNATTFKKDYEVYCQLLVDLAKKAGIPITLDSGSKTSDKGIKSHKWVADKLGGTTHQDPYAYLSSWGISKAQFASDLAKVSGGGNTGTAPAKPSTPAPKPSTPSTNLDKLGLVDYMNAKKMDSSYSNRDKLAKQYGIANYSGTASQNTTLLSKIKGGAPKPSTPAPKPSTSTAKKIYFPPNKGNWSVYPTNKAPVKANAIGAINPTKFGGLTYTIQKDRGNGVYEIQTDQFGRVQVYGAPSTGAVIKKTRSSRAGLQFPVGRVHRLLRKGIGKFLHSAKKFGKAFVGEIMNS","Average log reduction, Listeria",Listeria bacteria,+++ (+++: 4 or more logs)
